Reference: patent EP0554004A2, “Cephem compounds and antibacterial agents” (KATAYAMA SEIYAKUSYO CO. Ltd., priority 1992, dated 1993)
Converted amounts (≈) assume the structure as drawn.

Key:
Type in all cases: cell-based
[1] = system: Escherichia coli CSH2 (RE45); experiment: MIC against standard strains (Test Example 1)
Procedure: (§1) By using each test strain cultured overnight at 37°C in a Muller-Hinton broth, there was prepared a bacterial solution with a bacterial cell population of 1 x 10^6 CFU/mi of the same bouillon. The bacterial solution was inoculated into the Muller-Hinton agar media each containing respectively one test agent and, after overnight incubation at 37°C, the minimum concentration that inhibited growth of the bacteria was determined and shown as MIC also in Table 1.
(§2) Staphylococcus aureus 167 and Staphylococcus aureus 195 used in the test were MRSA. CTM (cefotiam) and FMOX (flomoxef) were used as control agents.

[2] = system: Micrococcus luteus ATCC 9341; experiment: MIC against standard strains (Test Example 1); conditions: ATCC9341, Muller-Hinton agar, 37°C overnight
Procedure: as §1, §2

[3] = system: Psuedomonas aeruginosa IFO 3445; experiment: MIC against standard strains (Test Example 1); conditions: Muller-Hinton agar, 37°C overnight
Procedure: as §1, §2

[4] = system: Enterobacter cloacae ATCC 13407; experiment: MIC against standard strains (Test Example 1); conditions: ATCC13407, Muller-Hinton agar, 37°C overnight
Procedure: as §1, §2

[5] = system: Proteus vulgalis OX-19; experiment: MIC against standard strains (Test Example 1); conditions: Muller-Hinton agar, 37°C overnight
Procedure: as §1, §2

[6] = system: Staphylococcus epidermidis IAM 1296; experiment: MIC against standard strains (Test Example 1); conditions: IAM1296, Muller-Hinton agar, 37°C overnight
Procedure: as §1, §2

[7] = system: Klebsiella pneumoniae IFO 3317; experiment: MIC against standard strains (Test Example 1); conditions: IFO3317, Muller-Hinton agar, 37°C overnight
Procedure: as §1, §2

[8] = system: Staphylococcus aureus 195; experiment: MIC against standard strains (Test Example 1); conditions: Staphylococcus aureus 195 (MRSA); Muller-Hinton agar, 37°C overnight
Procedure: as §1, §2

[9] = system: Klebsiella pneumoniae No. 42; experiment: MIC against standard strains (Test Example 1); conditions: Muller-Hinton agar, 37°C overnight
Procedure: as §1, §2

[10] = system: Proteus mirabilis IFO 3849; experiment: MIC against standard strains (Test Example 1); conditions: IFO3849, Muller-Hinton agar, 37°C overnight
Procedure: as §1, §2

[11] = system: Staphylococcus aureus 209P JC-1; experiment: MIC against standard strains (Test Example 1); conditions: Muller-Hinton agar, 37°C overnight
Procedure: as §1, §2

[12] = system: Staphylococcus aureus 167; experiment: MIC against standard strains (Test Example 1); conditions: Staphylococcus aureus 167 (MRSA); Muller-Hinton agar, 37°C overnight
Procedure: as §1, §2

[13] = system: Citrobacter freundii ATCC 8090; experiment: MIC against standard strains (Test Example 1); conditions: ATCC8090, Muller-Hinton agar, 37°C overnight
Procedure: as §1, §2

[14] = system: Morganella morganii IFO 3848; experiment: MIC against standard strains (Test Example 1); conditions: IFO3848, Muller-Hinton agar, 37°C overnight
Procedure: as §1, §2

[15] = system: Staphylococcus aureus Smith; experiment: MIC against standard strains (Test Example 1); conditions: Muller-Hinton agar, 37°C overnight
Procedure: as §1, §2

[16] = system: Escherichia coli CSH2 (RK1); experiment: MIC against standard strains (Test Example 1)
Procedure: as §1, §2

[17] = system: Bacillus subtilis ATCC 6633; experiment: MIC against standard strains (Test Example 1); conditions: ATCC6633, Muller-Hinton agar, 37°C overnight
Procedure: as §1, §2

[18] = system: Escherichia coli NIHJ JC-2; experiment: MIC against standard strains (Test Example 1); conditions: NIHJJC2, Muller-Hinton agar, 37°C overnight
Procedure: as §1, §2

[19] = system: Pseudomonas aeruginosa NCTC 10490; experiment: MIC against standard strains (Test Example 1); conditions: NCTC10490, Muller-Hinton agar, 37°C overnight
Procedure: as §1, §2

[20] = system: Serratia marcescens IAM 1184; experiment: MIC against standard strains (Test Example 1); conditions: IAM1184, Muller-Hinton agar, 37°C overnight
Procedure: as §1, §2

[21] = system: K. pneumoniae No. 42; experiment: MIC against standard strains (Test Example 3); conditions: Klebsiella pneumoniae; K. pneumoniae No. 42 (Test Example 3); read-out: MIC
Procedure: as §1
(§3) The minimum growth inhibitory concentration was determined for each of the 21 standard strains shown in Table 3, according to the same method as used in Test Example 1.
(§4) In the test, FMOX (flomoxef), CTM (cefotiam) and CEZ (cefazolin) were used as control agents.

[22] = system: S. aureus 167; experiment: MIC against standard strains (Test Example 3); conditions: Staphylococcus aureus; S. aureus 167 (MRSA) (Test Example 3); read-out: MIC
Procedure: as §1, §3, §4

[23] = system: S. aureus 195; experiment: MIC against standard strains (Test Example 3); conditions: Staphylococcus aureus; S. aureus 195 (MRSA) (Test Example 3); read-out: MIC
Procedure: as §1, §3, §4

[24] = system: S. marcescens IAM1184; experiment: MIC against standard strains (Test Example 3); conditions: Serratia marcescens; S. marcescens IAM1184 (Test Example 3); read-out: MIC
Procedure: as §1, §3, §4

[25] = system: A. faecalis ATCC3750; experiment: MIC against standard strains (Test Example 3); conditions: Alcaligenes faecalis; A. faecalis ATCC3750 (Test Example 3); read-out: MIC
Procedure: as §1, §3, §4

[26] = system: P. aeruginosa NCTC10490; experiment: MIC against standard strains (Test Example 3); conditions: Pseudomonas aeruginosa; P. aeruginosa NCTC10490 (Test Example 3); read-out: MIC
Procedure: as §1, §3, §4

[27] = system: E. coli CSH2 (RK1); experiment: MIC against standard strains (Test Example 3); conditions: Escherichia coli
Procedure: as §1, §3, §4

[28] = system: A. calcoaceticos T59; experiment: MIC against standard strains (Test Example 3); conditions: A. calcoaceticos T59 (Test Example 3); read-out: MIC
Procedure: as §1, §3, §4

[29] = system: E. coli NIHJ JC-2; experiment: MIC against standard strains (Test Example 3); conditions: Escherichia coli, NIHJJC2; E. coli NIHJ JC-2 (Test Example 3); read-out: MIC
Procedure: as §1, §3, §4

[30] = system: M. luteus ATCC 9341; experiment: MIC against standard strains (Test Example 3); conditions: Micrococcus luteus, ATCC9341; M. luteus ATCC 9341 (Test Example 3); read-out: MIC
Procedure: as §1, §3, §4

[31] = system: E. coli CSH2 (RE45); experiment: MIC against standard strains (Test Example 3); conditions: Escherichia coli
Procedure: as §1, §3, §4

[32] = system: S. epidemidis IAM1296; experiment: MIC against standard strains (Test Example 3); conditions: S. epidemidis IAM1296 (Test Example 3); read-out: MIC
Procedure: as §1, §3, §4

[33] = system: K. pneumoniae IFO3317; experiment: MIC against standard strains (Test Example 3); conditions: Klebsiella pneumoniae; K. pneumoniae IFO3317 (Test Example 3); read-out: MIC
Procedure: as §1, §3, §4

[34] = system: B. subtilis ATCC6633; experiment: MIC against standard strains (Test Example 3); conditions: Bacillus subtilis; B. subtilis ATCC6633 (Test Example 3); read-out: MIC
Procedure: as §1, §3, §4

[35] = system: S. aureus 209p JC-1; experiment: MIC against standard strains (Test Example 3); conditions: Staphylococcus aureus; S. aureus 209p JC-1 (Test Example 3); read-out: MIC
Procedure: as §1, §3, §4

[36] = system: E. cloacae ATCC13407; experiment: MIC against standard strains (Test Example 3); conditions: Enterobacter cloacae; E. cloacae ATCC13407 (Test Example 3); read-out: MIC
Procedure: as §1, §3, §4

[37] = system: C. freundii ATCC8090; experiment: MIC against standard strains (Test Example 3); conditions: Citrobacter freundii; C. freundii ATCC8090 (Test Example 3); read-out: MIC
Procedure: as §1, §3, §4

[38] = system: P. mirabilis IFO3849; experiment: MIC against standard strains (Test Example 3); conditions: Proteus mirabilis; P. mirabilis IFO3849 (Test Example 3); read-out: MIC
Procedure: as §1, §3, §4

[39] = system: P. vulugaris OX-19; experiment: MIC against standard strains (Test Example 3); conditions: P. vulugaris OX-19 (Test Example 3); read-out: MIC
Procedure: as §1, §3, §4

[40] = system: M. Morganii IFO3848; experiment: MIC against standard strains (Test Example 3); conditions: Morganella morganii; M. Morganii IFO3848 (Test Example 3); read-out: MIC
Procedure: as §1, §3, §4

[41] = system: S. aureus Smith; experiment: MIC against standard strains (Test Example 3); conditions: Staphylococcus aureus; S. aureus Smith (Test Example 3); read-out: MIC
Procedure: as §1, §3, §4

## CN(C)CCn1nnnc1SCC1=C(C(=O)O)N2C(=O)[C@@H](NC(=O)Cc3csc(N)n3)[C@H]2SC1 [CTM, cefotiam, reference compound]
[1]
  MIC: 0.2 mg/L (≈ 0.38 µM)
[2]
  MIC: 0.39 mg/L (≈ 0.742 µM)
[3]
  MIC: > 100 mg/L
[4]
  MIC: 50 mg/L (≈ 95.1 µM)
[5]
  MIC: 0.39 mg/L (≈ 0.742 µM)
[6]
  MIC: 0.2 mg/L (≈ 0.38 µM)
[7]
  MIC: 0.1 mg/L (≈ 0.19 µM)
[8]
  MIC: > 100 mg/L
[9]
  MIC: 0.39 mg/L (≈ 0.742 µM)
[10]
  MIC: 0.39 mg/L (≈ 0.742 µM)
[11]
  MIC: 0.2 mg/L (≈ 0.38 µM)
[12]
  MIC: > 100 mg/L
[13]
  MIC: 0.78 mg/L (≈ 1.48 µM)
[14]
  MIC: 0.1 mg/L (≈ 0.19 µM)
[15]
  MIC: 0.39 mg/L (≈ 0.742 µM)
[16]
  MIC: 0.2 mg/L (≈ 0.38 µM)
[17]
  MIC: 0.2 mg/L (≈ 0.38 µM)
[18]
  MIC: 0.1 mg/L (≈ 0.19 µM)
[19]
  MIC: > 100 mg/L
[20]
  MIC: 3.13 mg/L (≈ 5.95 µM)
[21]
  MIC: 0.39 mg/L (≈ 0.742 µM)
[22]
  MIC: 100 mg/L (≈ 190 µM)
[23]
  MIC: > 100 mg/L
[24]
  MIC: 1.56 mg/L (≈ 2.97 µM)
[25]
  MIC: 1.56 mg/L (≈ 2.97 µM)
[26]
  MIC: > 100 mg/L
[27]
  MIC: 0.1 mg/L (≈ 0.19 µM)
[28]
  MIC: 100 mg/L (≈ 190 µM)
[29]
  MIC: 0.1 mg/L (≈ 0.19 µM)
[30]
  MIC: 0.39 mg/L (≈ 0.742 µM)
[31]
  MIC: 0.1 mg/L (≈ 0.19 µM)
[32]
  MIC: 0.2 mg/L (≈ 0.38 µM)
[33]
  MIC: 0.05 mg/L (≈ 0.0951 µM)
[34]
  MIC: 0.2 mg/L (≈ 0.38 µM)
[35]
  MIC: 0.39 mg/L (≈ 0.742 µM)
[36]
  MIC: 3.13 mg/L (≈ 5.95 µM)
[37]
  MIC: 0.78 mg/L (≈ 1.48 µM)
[38]
  MIC: 0.39 mg/L (≈ 0.742 µM)
[39]
  MIC: 0.39 mg/L (≈ 0.742 µM)
[40]
  MIC: 0.1 mg/L (≈ 0.19 µM)
[41]
  MIC: 0.39 mg/L (≈ 0.742 µM)
